According to the supplement of paper PMC10307832:

What was measured:
Assay in all cases: relative viability (nuclei count vs DMSO), 5 days (fraction); higher = more cells survive
IA-LM = test system: IA-LM
Procedure, shortened: (§1)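 Nuclei were stained with Hoechst during a one-step fixation (final 0.05% Triton X-100, 1% formaldehyde, 1 ug/ml Hoechst) carried out 5 days after dosing, then counted on 4× images. The cells, lung cancer lines in 1536-well plates, had been dosed by pin tool the day after seeding with one drug alone or a fixed anchor-drug dose plus five library-drug doses (not always all listed) in √10 steps. Relative viability is the nuclei count in treated wells divided by that in vehicle wells, and each value is the median of duplicate plates.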

Calu-6 = test system: Calu-6
Procedure, shortened: as §1

NCI-H1299 = test system: NCI-H1299
Procedure, shortened: as §1

EBC-1 = test system: EBC-1
Procedure, shortened: as §1

NCI-H1623 = test system: NCI-H1623
Procedure, shortened: as §1

NCI-H1648 = test system: NCI-H1648
Procedure, shortened: as §1

Structure (SMILES)	relative viability (IA-LM; first compound 0.253 µM)	relative viability (IA-LM; first compound 0.8 µM)	relative viability (IA-LM; first compound 2.53 µM)	relative viability (IA-LM; first compound 8 µM)	relative viability (Calu-6; first compound 0.253 µM)	relative viability (Calu-6; first compound 0.8 µM)	relative viability (Calu-6; first compound 2.53 µM)	relative viability (Calu-6; first compound 8 µM)	relative viability (NCI-H1299; first compound 0.253 µM)	relative viability (NCI-H1299; first compound 0.8 µM)	relative viability (NCI-H1299; first compound 2.53 µM)	relative viability (NCI-H1299; first compound 8 µM)	relative viability (EBC-1; first compound 0.253 µM)	relative viability (EBC-1; first compound 0.8 µM)	relative viability (EBC-1; first compound 2.53 µM)	relative viability (EBC-1; first compound 8 µM)	relative viability (NCI-H1623; first compound 0.253 µM)	relative viability (NCI-H1623; first compound 0.8 µM)	relative viability (NCI-H1623; first compound 2.53 µM)	relative viability (NCI-H1623; first compound 8 µM)	relative viability (NCI-H1648; first compound 0.253 µM)	relative viability (NCI-H1648; first compound 0.8 µM)	relative viability (NCI-H1648; first compound 2.53 µM)	relative viability (NCI-H1648; first compound 8 µM)	relative viability (NCI-H1648; first compound 0.001 µM)	relative viability (NCI-H1648; first compound 0.003162 µM)	relative viability (NCI-H1648; first compound 0.01 µM)	relative viability (NCI-H1648; first compound 0.03162 µM)	relative viability (NCI-H1648; first compound 0.1 µM)
Nc1cccc2c1CN(C1CCC(=O)NC1=O)C2=O (stereo not drawn) [Lenalidomide] + C[C@@H](Oc1cc(-c2cnn(C3CCNCC3)c2)cnc1N)c1c(Cl)ccc(F)c1Cl [Crizotinib] (partner 1 µM)	0.833	0.753	0.759	0.756	0.808	0.825	1.06	1.01	0.978	1	1.01	0.977	0.195	0.191	0.154	0.194	–	–	–	–	–	–	–	–	–	–	–	–	–
Nc1cccc2c1CN(C1CCC(=O)NC1=O)C2=O (stereo not drawn) [Lenalidomide] + Cc1cc(Nc2cc(N3CCN(C)CC3)nc(Sc3ccc(NC(=O)C4CC4)cc3)n2)n[nH]1 [Tozasertib] (partner 0.1 µM)	–	–	–	–	–	–	–	–	–	–	–	–	–	–	–	–	0.427	0.36	0.43	0.496	0.578	0.317	0.509	0.599	–	–	–	–	–
Nc1cccc2c1CN(C1CCC(=O)NC1=O)C2=O (stereo not drawn) [Lenalidomide] + O=C(c1cc(Cc2n[nH]c(=O)c3ccccc23)ccc1F)N1CCN(C(=O)C2CC2)CC1 [Olaparib] (partner 8 µM)	0.874	0.799	0.777	0.728	0.547	0.591	0.674	0.799	0.938	1.03	1	1.07	0.708	0.603	0.823	0.691	–	–	–	–	0.883	–	1.12	0.922	–	–	–	–	–
Nc1cccc2c1CN(C1CCC(=O)NC1=O)C2=O (stereo not drawn) [Lenalidomide] + CC1(C)CCC(c2ccc(Cl)cc2)=C(CN2CCN(c3ccc(C(=O)NS(=O)(=O)c4ccc(N[C@H](CCN5CCOCC5)CSc5ccccc5)c(S(=O)(=O)C(F)(F)F)c4)cc3)CC2)C1 [Navitoclax] (partner 0.5 µM)	0.895	0.715	0.829	0.786	0.814	0.805	0.803	0.863	1.05	1.04	1.07	1.05	0.374	0.399	0.434	0.481	–	–	–	–	–	–	–	–	–	–	–	–	–
Cc1cn(-c2cc(NC(=O)c3ccc(C)c(Nc4nccc(-c5cccnc5)n4)c3)cc(C(F)(F)F)c2)cn1 [Nilotinib] + Nc1nc2[nH]cc(CCc3ccc(C(=O)N[C@@H](CCC(=O)O)C(=O)O)cc3)c2c(=O)[nH]1 [Pemetrexed] (partner 0.2 µM)	–	–	–	–	–	–	–	–	–	–	–	–	–	–	–	–	–	–	–	–	–	–	–	–	0.792	0.685	0.726	0.506	0.685
Nc1cccc2c1CN(C1CCC(=O)NC1=O)C2=O (stereo not drawn) [Lenalidomide] + COc1cc2c(Oc3ccc(NC(=O)C4(C(=O)Nc5ccc(F)cc5)CC4)cc3F)ccnc2cc1OCCCN1CCOCC1 [Foretinib] (partner 0.25 µM)	0.952	1.15	1.28	1.07	0.932	0.889	0.921	0.887	1.1	1.08	1.09	1.13	0.0951	0.0871	0.0994	0.109	0.858	0.784	0.862	0.71	–	–	–	–	–	–	–	–	–
Nc1cccc2c1CN(C1CCC(=O)NC1=O)C2=O (stereo not drawn) [Lenalidomide] + CCNC(=O)c1noc(-c2cc(C(C)C)c(O)cc2O)c1-c1ccc(CN2CCOCC2)cc1 [Luminespib] (partner 0.01 µM)	–	–	–	–	–	–	–	–	–	–	–	–	–	–	–	–	0.413	0.474	0.557	0.399	–	–	–	–	–	–	–	–	–
